From patent US6043212A, “Recombinant C140 receptor, its agonists and antagonists, and nucleic acids encoding the receptor” (COR Therapeutics, Inc., priority 1995, dated 2000)
Peptide text beside a SMILES is read from it.

Assays:
rat femoral vein = assay: Vasodilation of isolated rat femoral vein contracted with PGF2α (organ bath); conditions: PGF2α 3×10^-5 M, test substance 10^-5 M
Method: This effect was also shown by observing vasodilation as a result of stimulation of the rat femoral vein with the above agonist. Adult Sprague-Dawley rats were killed by exsanguination during diethylether anesthesia and the femoral vein was removed and dissected free from fat and connective tissue. Circular preparations of the vein were mounted in an organ bath (5 ml) on two L-formed metal holders (0.2 mm diameter). One of the metal holders was screwed into one of the levers of a Grass FTO C force displacement transducer. The bathing liquid was Kreb's Ringer solution containing 118 mM NaCl, 4.7 mM KCl, 2.5 mM CaCl2, 1.2 MM MgSO4, 24.8 mM NaHCO3, 1.2 mM KH2 PO4 and 5.6 mM glucose. The bathing fluid was continuously treated with 88.5% oxygen-11.5% CO2; the temperature was held at 37° C. The endothelium was removed by bubbling CO2 through the vessels. The basal tension was between 7.5 and 12 mN. The preparations were equilibrated for at least 1 hr before application of agonist and control substances.

[1] = Hypotensive activity: arterial pressure after injection into rat femoral vein; type: in vivo; conditions: FIG. 7
Method: The C140 agonist SLIGRL (SEQ ID NO: 23) was injected in 0.2 ml buffer at various concentrations into rat femoral vein and the arterial pressure was monitored.

[2] = biological target: T1, wild-type mouse C140 receptor (Mus musculus, UniProt P55086); assay: 45Ca release by Xenopus oocytes expressing wild-type mouse C140 receptor; type: cell-based
T1 construct: Native receptors were produced by cloning the coding region of the receptor gene; expressed in transfected cells; host or cells: Xenopus laevis oocytes injected with capped cRNA from pSG-5 C140
T1 sequence (P55086 32-399 limits assumed): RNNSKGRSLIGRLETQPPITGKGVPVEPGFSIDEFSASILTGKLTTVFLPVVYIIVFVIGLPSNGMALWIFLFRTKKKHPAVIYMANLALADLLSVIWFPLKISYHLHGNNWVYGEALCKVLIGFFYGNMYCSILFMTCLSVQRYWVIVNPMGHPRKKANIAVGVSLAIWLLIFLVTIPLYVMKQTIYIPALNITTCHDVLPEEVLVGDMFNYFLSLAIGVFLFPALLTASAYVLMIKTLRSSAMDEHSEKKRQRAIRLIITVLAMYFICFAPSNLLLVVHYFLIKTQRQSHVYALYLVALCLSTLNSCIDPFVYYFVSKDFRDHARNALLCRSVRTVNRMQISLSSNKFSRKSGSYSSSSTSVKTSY
Method: Agonist-induced increases in ^45 Ca release by oocytes expressing cRNA encoding C140 receptor or other recombinant cells producing C140 receptor are assessed by published techniques (Williams, J. A., et al., Proc Natl Acad Sci USA (1988) 85:4939-4943). Briefly, intracellular calcium pools are labeled by incubating groups of 30 oocytes in 300 μl calcium-free modified Barth's solution (MBSH) containing 50 μCi ^45 CaCl2 (10-40 mCi/mg Ca; Amersham) for 4 hours at RT. The labeled oocytes or cells are washed, then incubated in MBSH II without antibiotics for 90 minutes. Groups of 5 oocytes are selected and placed in individual wells in a 24-well tissue culture plate (Falcon 3047) containing 0.5 ml/well MBSH II without antibiotics. This medium is removed and replaced with fresh medium every 10 minutes; the harvested medium is analyzed by scintillation counting to determine ^45 Ca released by the oocytes during each 10-minute incubation. The 10-minute incubations are continued until a stable baseline of ^45 Ca release per unit time is achieved. Two additional 10-minute collections are obtained, then test medium including agonist is added and agonist-induced ^45 Ca release determined.
Oocytes from Xenopus laevis were harvested and prepared using published techniques (Coleman, A., in Hames, B. D., and Higgins, S. J., eds, Transcription and Translation: A Practical Approach, IRL Press, pp. 271-302; Williams, J. A., et al. Proc Natl Acad Sci USA (1988) 85:4939-4943]. To remove follicular cells, oocytes were incubated for 1.5 h with shaking in calcium-free Barth's containing 2 mg/ml each of collagenase 1A and hyaluronidase 1S. The oocytes were then washed five times in regular Barth's and incubated at 18° C. in Barth's medium containing 100 U/ml penicillin, 100 μg/ml streptomycin, and 2.5 mM sodium pyruvate. Stage V oocytes were selected and injected with 30 nl of cRNA (0.33 μg/μl water) or water alone, and then incubated with 0.25 ml of medium in groups of four/well in a 96-well culture plate. After 36 hours the oocytes were incubated with ^45 Ca (250 μCi/ml). After 12 h incubation the oocytes were washed and 0.2 ml of medium added and replaced every five minutes. The harvested medium was analyzed by scintillation counting. After five replacements to determine the baseline release of ^45 Ca, test medium with the agonist, e.g. SLIGRL (SEQ ID NO: 23), was added and the evoked ^45 Ca-release determined.
Oocytes were injected with capped cRNA (ca 10 ng) encoding wild-type mouse C140 receptor (WT) or either of the three mutant receptors 35Pro, 35Arg and 35His. After 36 hours, cRNA-injected and control water-injected, oocytes were loaded with ^45 Ca, and 12 hours thereafter peptide or trypsin-induced ^45 Ca release were determined as described above. The peptide SLIGRL (SEQ ID NO: 23) was added at 100 μM, and trypsin at 300 pM. The stimulation with the peptide was done on the same group of oocytes after the stimulation with trypsin. The data shown in Table 1 represent the mean of three replicate determinations, and denotes the increase compared to oocytes injected with water.
Various peptides were tested at 100 μM in the assay above using wild-type mouse C140 receptor, expressed in oocytes.

C140 receptor = biological target: T2, C140 receptor (Mus musculus, UniProt P55086); assay: Activation of frog oocytes injected with C140 receptor cRNA by proteases; type: cell-based; conditions: FIG. 9c
T2 construct: expressed in transfected cells; host or cells: frog oocytes injected with C140 receptor cRNA
T2 sequence (P55086 26-399): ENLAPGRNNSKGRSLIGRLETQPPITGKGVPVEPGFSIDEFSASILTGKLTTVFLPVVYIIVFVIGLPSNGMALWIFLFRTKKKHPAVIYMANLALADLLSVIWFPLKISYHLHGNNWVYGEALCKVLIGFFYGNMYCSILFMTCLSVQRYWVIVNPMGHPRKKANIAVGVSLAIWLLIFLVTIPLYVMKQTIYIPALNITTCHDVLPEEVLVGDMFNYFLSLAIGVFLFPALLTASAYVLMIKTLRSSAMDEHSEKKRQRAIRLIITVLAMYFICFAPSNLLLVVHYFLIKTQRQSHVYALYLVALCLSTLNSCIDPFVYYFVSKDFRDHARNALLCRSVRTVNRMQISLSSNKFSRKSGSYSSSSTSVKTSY
Source text: FIGS. 9a and 9b show the ability of plasmin and kallikrein respectively to activate oocytes injected with C140 cRNA (open circles) or water (crosses) as control.

Compound	Effect on contraction induced by PGF2α (rat femoral vein; endothelium present, FIG. 8a)	Effect on contraction induced by PGF2α (rat femoral vein; endothelium removed, FIG. 8b)	Effect on arterial blood pressure ([1]; 0.2 ml buffer at 0.1 mM into femoral vein)	Effect on arterial blood pressure ([1]; 0.2 ml buffer at 1 mM into femoral vein)	Fold increase in 45Ca ([2]; Table 2, peptides at 100 μM, wild-type mouse C140 receptor in oocytes)	Fold increase in 45Ca ([2]; WT receptor, peptide at 100 μM, same oocytes after trypsin stimulation, compared to water-injected oocytes)	Fold increase in 45Ca ([2]; WT receptor, trypsin at 300 pM, increase compared to water-injected oocytes, mean of three)	Activation of oocytes injected with C140 receptor cRNA versus substance K receptor cRNA (C140 receptor)
CC[C@H](C)[C@H](NC(=O)[C@H](CC(C)C)NC(=O)[C@@H](N)CO)C(=O)NCC(=O)N[C@@H](CCCNC(=N)N)C(=O)N[C@@H](CC(C)C)C(=O)O [SLIGRL] (H-SLIGRL-OH)	relaxed	not counteracted	appreciable decrease in blood pressure	larger decreases	15 fold	11 fold	–	–
trypsin	–	–	–	–	–	–	6.6 fold	differential effect
